Laboratory results: paper PMC6364133, “Selectivity of Dietary Phenolics for Inhibition of Human Monoamine Oxidases A and B” (BioMed Research International, 2019)
Where two headings read alike, the source gives them in different places.

What was measured:
MAO-B [1] = target: T1, MAO-B (Homo sapiens, UniProt P27338); experiment: MAO-B inhibition, kynuramine to 4-hydroxyquinoline, HPLC-fluorescence; assay type: biochemical
T1 construct: purchased BD Biosciences (San Jose, CA) or Corning Discovery Labware (Woburn, MA)
T1 sequence (P27338 1-520): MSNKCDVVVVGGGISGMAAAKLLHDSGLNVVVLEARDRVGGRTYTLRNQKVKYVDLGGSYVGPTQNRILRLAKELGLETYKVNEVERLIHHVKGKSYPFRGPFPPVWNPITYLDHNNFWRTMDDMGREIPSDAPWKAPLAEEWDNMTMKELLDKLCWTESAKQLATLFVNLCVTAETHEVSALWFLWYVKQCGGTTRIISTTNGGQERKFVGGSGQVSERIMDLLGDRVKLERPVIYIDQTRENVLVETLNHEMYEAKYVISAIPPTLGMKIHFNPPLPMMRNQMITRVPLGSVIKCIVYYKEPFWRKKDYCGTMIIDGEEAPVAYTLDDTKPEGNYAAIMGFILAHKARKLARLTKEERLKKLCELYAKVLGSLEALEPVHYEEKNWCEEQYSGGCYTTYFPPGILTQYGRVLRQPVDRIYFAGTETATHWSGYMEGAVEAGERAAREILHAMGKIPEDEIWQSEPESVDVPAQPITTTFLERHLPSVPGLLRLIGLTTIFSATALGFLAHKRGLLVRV

MAO-A [2] = target: T2, MAO-A (Homo sapiens, UniProt P21397); experiment: MAO-A inhibition, kynuramine to 4-hydroxyquinoline, HPLC-fluorescence; assay type: biochemical; settings: for inhibition of MAO-A activity in screening: highest expected luminal concentration: curcumin 140, guaiacol 435, isoeugenol 110, pterostilbene 270, resveratrol 94, zingerone 51 µM, p < 0.05 vs control; for IC50 / MAO-A Hill coefficient / MAO-A inhibition (Figure 6): kynuramine 10 µM, 15 min; for IC50 / MAO-A Hill coefficient: MAO-A 0.01 mg/mL; for Selectivity Index: ratio of MAO-B IC50/MAO-A IC50; for MAO-A inhibition (Figure 6): 15 µM test compound (clorgyline 1 µM, selegiline 0.5 µM)
T2 construct: purchased BD Biosciences (San Jose, CA) or Corning Discovery Labware (Woburn, MA)
T2 sequence (P21397 1-527): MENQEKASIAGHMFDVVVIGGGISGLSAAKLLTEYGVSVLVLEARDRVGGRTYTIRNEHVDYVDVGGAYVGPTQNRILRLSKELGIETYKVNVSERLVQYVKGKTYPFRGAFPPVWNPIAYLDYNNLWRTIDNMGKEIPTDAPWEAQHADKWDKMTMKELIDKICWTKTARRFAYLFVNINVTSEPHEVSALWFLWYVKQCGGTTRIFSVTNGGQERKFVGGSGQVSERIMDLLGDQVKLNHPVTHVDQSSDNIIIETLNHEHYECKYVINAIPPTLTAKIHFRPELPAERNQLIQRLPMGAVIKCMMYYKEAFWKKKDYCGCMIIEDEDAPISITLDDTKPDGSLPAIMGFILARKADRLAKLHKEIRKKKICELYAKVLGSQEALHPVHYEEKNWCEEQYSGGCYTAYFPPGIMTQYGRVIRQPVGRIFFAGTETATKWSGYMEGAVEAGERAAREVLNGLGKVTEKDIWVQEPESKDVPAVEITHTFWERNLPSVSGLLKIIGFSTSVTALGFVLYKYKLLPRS

MAO-B [3] = target: T1, MAO-B; experiment: Kynuramine oxidative deamination kinetics (saturation, optimization) with MAO-B; assay type: biochemical; settings: mean ± SEM
Method: (§1) The optimized incubation time and human recombinant MAO concentration were selected in the linear range from the time-dependent and MAO concentration-dependent studies (Supplemental Data). Briefly, samples were prepared in potassium phosphate buffer (100 mM, pH 7.4) with a final concentration of MAO in the reaction solution of 0.01 mg/mL, incubated at 37°C for 15 min. Saturation of kynuramine metabolism with MAO-A/B was carried out at concentrations of 2, 5, 10, 25, 50, 100, 250, 500 μM. The enzymatic reactions (200μL) were stopped by 2 N NaOH (75 μL) followed with 70% perchloric acid (25 μL). The samples were vortexed and centrifuged for 5 min at 10,000×g. The supernatant was analyzed by HPLC as described above.
(§2) GraphPad Prism 5 was applied to fit a Michaelis-Menten model to the data to obtain the Km values in the saturation experiments. In the screening experiments, significant differences between control and treated group were determined by a one-way ANOVA followed by Dunnett's posttest (p < 0.05). […] The maximum single doses are from published sources. The relevant GI concentration is the lesser of either solubility or the concentration after a single dose.
(§3) Kynuramine (2 to 500 μM) was incubated in 200 μL potassium phosphate buffer (100 mM, pH 7.4) for 15 min with MAO-A or MAO-B (0.01 mg/mL). Michaelis-Menten model was used to fit the data by GraphPad Prism 5. The experiments were conducted 3 times in triplicate. Single representative experiments are shown. […]
(§4) Table S7. Sample Processing Stability for 4-Hydroxyquinoline […]
(§5) B. Optimization of Enzyme Incubations […]
(§6) Kynuramine (10 µM) was incubated with MAO-A (0.01 mg/mL) in 200 µL potassium phosphate buffer (100 mM, pH 7.4) for 10, 20, 30, 40, and 60 min. The formation of 4-hydroxyquinoline was analyzed after the enzymatic reaction. […]

human MAO-A = test system: human MAO-A; parameters: method as in PMID 15095350; settings: cited from earlier work
[4] = parameters: method as in earlier work; settings: cited from earlier work
MAO-A [5] = target: T2, MAO-A; experiment: Kynuramine oxidative deamination kinetics (saturation, optimization) with MAO-A; assay type: biochemical; settings: mean ± SEM
Method: as §1, §2, §3, §4, §5, §6

human MAO-B = test system: human MAO-B; parameters: method as in PMID 15095350; settings: cited from earlier work
MAO-B [6] = settings: cited from earlier work
MAO-A [7] = settings: cited from earlier work
MAO-B in mouse brain = settings: after p.o. administration; cited from earlier work
MAO-A in mouse brain = settings: after p.o. administration; cited from earlier work
MAO-B in rat brain = target: MAO-B in rat brain; parameters: method as in PMID 15120460; settings: cited from earlier work
MAO-A in rat brain = settings: cited from earlier work
MAO-A [8] = target: T2, MAO-A; experiment: Inhibition mechanism studies (competition, time dependence) with MAO-A; assay type: biochemical; settings: 1 μM, preincubation 0-60 min, then kynuramine 20 μM
[9] = kynuramine 10 µM, MAO-B 0.01 mg/mL, 15 min
[10] = highest expected luminal concentration: curcumin 140, guaiacol 435, isoeugenol 110, pterostilbene 270, resveratrol 94, zingerone 51 µM, p < 0.05 vs control
[11] = 15 µM test compound (clorgyline 1 µM, selegiline 0.5 µM), kynuramine 10 µM, 15 min

With COc1cc(CCC(C)=O)ccc1O [zingerone] the inhibition at 51 µM (MAO-B [1]; 51 µM (GI concentration expected from maximum single dose)) was under 10%, the “inhibition of MAO-A activity in screening” value (“inhibition of MAO-A activity” below) (MAO-A [2]) was “only inhibited MAO-A” and the IC50 (MAO-A [2]) was 16.3 ± 1.1 µM.

With isoeugenol the “inhibition of MAO-B activity in screening” value (“inhibition of MAO-B activity” below) (MAO-B [1]) was “significantly inhibited”, the “MAO-B Hill coefficient” value (MAO-B [1]; [9]) was 2.4 ± 0.3 and the “inhibition of MAO-A activity” value (MAO-A [2]) was “significantly inhibited”. The “MAO-A Hill coefficient” value (MAO-A [2]) was 1.2 ± 0.1 and the “Selectivity Index” value (MAO-A [2]) was 27.4.

For NCCC(=O)c1ccccc1N [kynuramine], the “rate of 4-hydroxyquinoline formation, time-dependent study, MAO-B” value (MAO-B [3]; kynuramine 10 µM, MAO-B 0.01 mg/mL, 10-60 min) was 2.70 ± 0.07 nmol/mg/min, the “rate of 4-hydroxyquinoline formation, MAO concentration-dependent study, MAO-B” value (MAO-B [3]; kynuramine 10 µM, MAO-B 0.003-0.03 mg/mL, 15 min) was 3.66 ± 0.08 nmol/mg/min and the “Vmax, MAO-B” value (MAO-B [3]; kynuramine 2-500 μM, 15 min) was 7.35 ± 0.69 nmol/min/mg. The Km (human MAO-A) was 42 µM, the “estimated most basic pKa” value [4] was 8.4 and the “rate of 4-hydroxyquinoline formation, time-dependent study, MAO-A” value (MAO-A [5]; kynuramine 10 µM, MAO-A 0.01 mg/mL, 10-60 min) was 3.28 ± 0.09 nmol/mg/min. For the same compound, the “rate of 4-hydroxyquinoline formation, MAO concentration-dependent study, MAO-A” value (MAO-A [5]; kynuramine 10 µM, MAO-A 0.003-0.03 mg/mL, 15 min) was 3.06 ± 0.03 nmol/mg/min, the “Vmax, MAO-A” value (MAO-A [5]; kynuramine 2-500 μM, 15 min) was 10.2 ± 0.2 nmol/min/mg and the Km (human MAO-B) was 26 µM. For the same compound, the Km (MAO-B [6]) was 90 µM and the Km (MAO-A [7]) was 44.1 µM.

For COc1cc(/C=C/C(=O)CC(=O)/C=C/c2ccc(O)c(OC)c2)ccc1O [curcumin], the “MAO-B inhibition in mouse brain” value (MAO-B in mouse brain) is listed as “inhibits”, the “inhibition of MAO-B activity” value (MAO-B [1]; [10]) is listed as “significantly inhibited” and the “MAO-B Hill coefficient” value (MAO-B [1]; [9]) is listed as 1.7 ± 0.1. For the same compound, the “inhibition of MAO-A activity” value (MAO-A [2]) was “significantly inhibited”, the “MAO-A Hill coefficient” value (MAO-A [2]) was 2.0 ± 0.4 and the “MAO-A inhibition in mouse brain” value (MAO-A in mouse brain) was “inhibits”.

For Cc1cc(O)c2c(c1)C(=O)c1cc(O)cc(O)c1C2=O [emodin], the Ki (MAO-B in rat brain) is given as 15.1 µM and the “mode of inhibition, MAO-B” value (MAO-B in rat brain) is given as “mixed mode”.

For OC[C@H]1O[C@@H](Oc2ccc(/C=C/c3cc(O)cc(O)c3)cc2)[C@H](O)[C@@H](O)[C@@H]1O [resveratrol 4'-glucoside], the “MAO-B inhibition (Figure 6)” value (MAO-B [1]; [11]) was “failed to inhibit” and the “MAO-A inhibition (Figure 6)” value (MAO-A [2]) was “inhibited MAO-A”.

In the case of O=c1cc(-c2ccccc2)oc2cc(O)cc(O)c12 [chrysin], the “MAO-B inhibition (Figure 6)” value (MAO-B [1]; [11]) is reported as “inhibited both enzymes” and the “MAO-A inhibition (Figure 6)” value (MAO-A [2]) is reported as “inhibited both enzymes”.

For O=c1c(O)c(-c2ccc(O)c(O)c2)oc2cc(O)cc(O)c12 [quercetin], the MAO-B inhibition (MAO-B [6]) is given as “inhibitor” and the MAO-A inhibition (MAO-A [7]) is given as “inhibitor”.

For OC[C@H]1O[C@@H](Oc2cc(O)cc(/C=C/c3ccc(O)cc3)c2)[C@H](O)[C@@H](O)[C@@H]1O [resveratrol 3-glucoside], the “MAO-B inhibition (Figure 6)” value (MAO-B [1]) was “failed to inhibit”.

In the case of COc1ccc(C(C)=O)c(O)c1 [paeonol], the Ki (MAO-B in rat brain) is given as 38.2 µM, the “mode of inhibition, MAO-B” value (MAO-B in rat brain) is given as “competitive” and the Ki (MAO-A in rat brain) is given as 51.1 µM. The “mode of inhibition, MAO-A” value (MAO-A in rat brain) was “non-competitive”.

For O=C(/C=C/C=C/c1ccc2c(c1)OCO2)N1CCCCC1 [piperine], the Ki (MAO-B in rat brain) is given as 79.9 µM, the “mode of inhibition, MAO-B” value (MAO-B in rat brain) is given as “competitive” and the Ki (MAO-A in rat brain) is given as 35.8 µM. The “mode of inhibition, MAO-A” value (MAO-A in rat brain) was “mixed”.

With COc1cc(/C=C/c2ccc(O[C@@H]3O[C@H](CO)[C@@H](O)[C@H](O)[C@H]3O)cc2)cc(OC)c1 [pterostilbene 4'-glucoside] the “MAO-B inhibition (Figure 6)” value (MAO-B [1]; [11]) was “failed to inhibit”.

For Oc1ccnc2ccccc12 [4-hydroxyquinoline], the “estimated most acidic pKa” value [4] is listed as 4.3 and the “estimated most basic pKa” value [4] is listed as 11.1.

In the case of N[C@@H]1C[C@H]1c1ccccc1 (racemic) [tranylcypromine], the “plateau inhibition, MAO-A” value (MAO-A [8]) is reported as 48%.

For COc1ccccc1O [guaiacol], the “inhibition of MAO-B activity” value (MAO-B [1]; [10]) was “significantly inhibited”, the IC50 (MAO-B [1]; [9]) was 322 ± 27 µM and the “inhibition of MAO-A activity” value (MAO-A [2]) was “significantly inhibited”. The IC50 (MAO-A [2]) was 131 ± 6 µM and the “Selectivity Index” value (MAO-A [2]) was 2.46.

For O=c1c(O)c(-c2ccc(O)cc2)oc2cc(O)cc(O)c12 [kaempferol], the MAO-A inhibition (MAO-A [7]) is given as “selective MAO-A inhibitor”.
